Laboratory results taken from patent US5041549A, “Heterocyclic spiro compounds and methods for preparing the same” (Yamanouchi Pharmaceutical Co., Ltd., priority 1987, dated 1991).
pIC50: −log10 of the molar value.

molecular target: T1, M1-receptor of rat cerebral cortex (Rattus norvegicus, UniProt P08482); experiment: Affinity for muscarinic receptor: [3H]pirenzepine binding to M1-receptor of rat cerebral cortex; settings: not given
T1 construct: M1 -receptor of rat cerebral cortex; from tissue; host or cells: rat cerebral cortex (membranes of rat brain)
T1 sequence (P08482 1-460): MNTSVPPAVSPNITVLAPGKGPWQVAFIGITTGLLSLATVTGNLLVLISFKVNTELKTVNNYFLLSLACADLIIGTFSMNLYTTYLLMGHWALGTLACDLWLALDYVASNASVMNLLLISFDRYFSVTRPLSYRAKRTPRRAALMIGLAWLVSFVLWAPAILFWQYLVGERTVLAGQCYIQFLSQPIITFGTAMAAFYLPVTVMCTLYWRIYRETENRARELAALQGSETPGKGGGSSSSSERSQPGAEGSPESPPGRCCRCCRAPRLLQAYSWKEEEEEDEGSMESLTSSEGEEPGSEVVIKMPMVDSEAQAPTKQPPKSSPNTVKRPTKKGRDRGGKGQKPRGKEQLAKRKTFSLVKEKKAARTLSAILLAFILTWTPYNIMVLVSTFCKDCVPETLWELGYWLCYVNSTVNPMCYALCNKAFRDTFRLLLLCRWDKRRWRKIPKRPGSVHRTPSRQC

Row | SMILES | pIC50
1 | CC1OC2(CN3CCC2CC3)CC12SCCS2 (single isomer, unassigned) [Example 33, 5'-Methyl-dispiro[1-azabicyclo[2.2.2]octane-3,2'-oxolane-4',2"-[1.3]dithiolane]] | 7.77
2 | C=C1CC2(CCN(C)CC2)OC1C (centres unmarked) [Example 5, 2,8-dimethyl-3-methylene-1-oxa-8-azaspiro[4,5]decane] | 5.48
3 | CC1SC2(CCN(C)CC2)CC12SCCS2 (centres unmarked) [Example 22, 10,14-Dimethyl-1,4,13-trithia-10-azadispiro[4.1.5.2]tetradecane] | 7.41
4 | CCC1OC2(CCN(C)CC2)CC12OCCS2 (centres unmarked) [Example 29, 14-ethyl-10-methyl-1,13-dioxa-4-thia-10-azadispiro[4.1.5.2]tetradecane] | 7.31
5 | O=C1CCCN1CC#CCN1CCCC1 [Oxotremorine, reference compound] | 7.17

same assay, conditions: [3H]pirenzepine, M1-receptor, rat cerebral cortex; read-out: Receptor-affinity IC50, Pirenzepine binding

Row | SMILES | pIC50
6 | C=C1CC2(CCN(C)CC2)OC1CC (centres unmarked) [Example 36, 2-Ethyl-8-methyl-3-methylene-1-oxa-8-azaspiro[4.5]decane] | 5.90

molecular target: M2-receptor of rat cerebellum (Rattus norvegicus, UniProt P10980); experiment: biochemical; format: binding; settings: not given
Sequence (P10980 whole entry): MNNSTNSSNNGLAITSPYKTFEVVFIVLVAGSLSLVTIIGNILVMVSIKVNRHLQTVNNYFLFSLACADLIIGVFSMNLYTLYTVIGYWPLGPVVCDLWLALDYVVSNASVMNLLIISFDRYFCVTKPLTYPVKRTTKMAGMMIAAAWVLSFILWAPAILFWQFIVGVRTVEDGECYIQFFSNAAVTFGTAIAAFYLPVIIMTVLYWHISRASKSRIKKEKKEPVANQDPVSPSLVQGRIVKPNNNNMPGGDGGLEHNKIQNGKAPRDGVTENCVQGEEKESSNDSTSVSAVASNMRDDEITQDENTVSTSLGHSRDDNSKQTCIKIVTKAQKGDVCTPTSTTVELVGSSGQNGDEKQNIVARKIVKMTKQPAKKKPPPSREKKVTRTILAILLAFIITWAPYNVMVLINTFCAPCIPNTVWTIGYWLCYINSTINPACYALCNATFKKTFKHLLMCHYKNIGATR

Row | SMILES | pIC50
7 | CC1OC2(CN3CCC2CC3)CC12SCCS2 (single isomer, unassigned) [Example 33, 5'-Methyl-dispiro[1-azabicyclo[2.2.2]octane-3,2'-oxolane-4',2"-[1.3]dithiolane]] | 6.51
8 | C=C1CC2(CCN(C)CC2)OC1C (centres unmarked) [Example 5, 2,8-dimethyl-3-methylene-1-oxa-8-azaspiro[4,5]decane] | 4.60
9 | CC1SC2(CCN(C)CC2)CC12SCCS2 (centres unmarked) [Example 22, 10,14-Dimethyl-1,4,13-trithia-10-azadispiro[4.1.5.2]tetradecane] | 6.15
10 | CCC1OC2(CCN(C)CC2)CC12OCCS2 (centres unmarked) [Example 29, 14-ethyl-10-methyl-1,13-dioxa-4-thia-10-azadispiro[4.1.5.2]tetradecane] | 6.19
11 | C=C1CC2(CCN(C)CC2)OC1CC (centres unmarked) [Example 36, 2-Ethyl-8-methyl-3-methylene-1-oxa-8-azaspiro[4.5]decane] | 5.05
12 | O=C1CCCN1CC#CCN1CCCC1 [Oxotremorine, reference compound] | 8.31

test system: tremor in mice; experiment: Induction of tremor in mice; settings: sc

Row | SMILES | Dose, the effect of the above 2) (minimum effective dose for causing tremor)
13 | CC1OC2(CN3CCC2CC3)CC12SCCS2 (single isomer, unassigned) [Example 33, 5'-Methyl-dispiro[1-azabicyclo[2.2.2]octane-3,2'-oxolane-4',2"-[1.3]dithiolane]] | > 30 mg/kg
14 | COC(=O)C1=CCCN(C)C1 [Arecoline, reference compound] | 5 mg/kg
15 | C=C1CC2(CCN(C)CC2)OC1C (centres unmarked) [Example 5, 2,8-dimethyl-3-methylene-1-oxa-8-azaspiro[4,5]decane] | > 30 mg/kg
16 | CCC1OC2(CCN(C)CC2)CC1=O (centres unmarked) [Example 15, 2-ethyl-8-methyl-1-oxa-8-azaspiro[4.5]decan-3-one] | > 30 mg/kg
17 | CC1SC2(CCN(C)CC2)CC12SCCS2 (centres unmarked) [Example 22, 10,14-Dimethyl-1,4,13-trithia-10-azadispiro[4.1.5.2]tetradecane] | > 30 mg/kg
18 | CCC1OC2(CCN(C)CC2)CC12OCCS2 (centres unmarked) [Example 29, 14-ethyl-10-methyl-1,13-dioxa-4-thia-10-azadispiro[4.1.5.2]tetradecane] | > 30 mg/kg
19 | C=C1CC2(CCN(C)CC2)OC1CC (centres unmarked) [Example 36, 2-Ethyl-8-methyl-3-methylene-1-oxa-8-azaspiro[4.5]decane] | > 30 mg/kg
20 | O=C1CCCN1CC#CCN1CCCC1 [Oxotremorine, reference compound] | 0.2 mg/kg
